Laboratory results reported in ChEMBL document CHEMBL1145159 (J Med Chem, 2005).
“And” between values parts separate entries of the source, which are not always exact repeats. Equal values may be shown once. Peptide text beside a SMILES is read from it.

Columns and labels:
[1] = target: T1, Neuronal acetylcholine receptor; alpha4/beta2 (Homo sapiens, UniProt P17787+P43681); experiment: Effective concentration against Nicotinic acetylcholine receptor alpha4-beta2; assay type: protein-complex assay
T1 sequence (P17787 whole entry): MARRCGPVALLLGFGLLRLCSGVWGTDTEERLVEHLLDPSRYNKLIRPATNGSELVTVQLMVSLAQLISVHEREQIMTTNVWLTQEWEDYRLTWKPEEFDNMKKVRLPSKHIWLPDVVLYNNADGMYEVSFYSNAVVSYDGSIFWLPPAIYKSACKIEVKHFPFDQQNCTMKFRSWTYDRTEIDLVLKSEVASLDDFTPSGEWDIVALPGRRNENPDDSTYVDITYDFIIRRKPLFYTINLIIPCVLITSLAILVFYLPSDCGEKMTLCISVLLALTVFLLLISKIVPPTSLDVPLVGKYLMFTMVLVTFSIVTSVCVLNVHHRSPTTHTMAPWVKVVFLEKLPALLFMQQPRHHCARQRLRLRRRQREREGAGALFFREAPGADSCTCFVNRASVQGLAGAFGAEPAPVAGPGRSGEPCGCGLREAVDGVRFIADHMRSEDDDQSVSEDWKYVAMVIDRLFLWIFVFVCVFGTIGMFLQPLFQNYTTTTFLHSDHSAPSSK
T1 sequence (P43681 whole entry): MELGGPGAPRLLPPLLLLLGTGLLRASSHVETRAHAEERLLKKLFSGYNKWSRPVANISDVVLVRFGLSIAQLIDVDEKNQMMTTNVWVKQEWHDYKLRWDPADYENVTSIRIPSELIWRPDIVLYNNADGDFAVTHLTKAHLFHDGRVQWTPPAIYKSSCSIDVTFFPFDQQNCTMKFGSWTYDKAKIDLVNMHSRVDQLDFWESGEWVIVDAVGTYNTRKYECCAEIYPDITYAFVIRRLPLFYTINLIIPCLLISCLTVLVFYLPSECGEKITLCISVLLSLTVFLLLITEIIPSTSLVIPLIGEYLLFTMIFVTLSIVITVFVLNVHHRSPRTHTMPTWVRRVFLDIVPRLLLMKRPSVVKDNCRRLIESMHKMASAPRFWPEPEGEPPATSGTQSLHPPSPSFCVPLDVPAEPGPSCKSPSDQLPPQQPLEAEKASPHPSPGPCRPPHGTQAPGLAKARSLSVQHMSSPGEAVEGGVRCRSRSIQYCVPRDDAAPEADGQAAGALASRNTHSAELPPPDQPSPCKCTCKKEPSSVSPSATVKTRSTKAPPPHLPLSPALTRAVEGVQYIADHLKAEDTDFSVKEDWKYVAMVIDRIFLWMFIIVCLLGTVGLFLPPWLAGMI

[2] = target: T2, Neuronal acetylcholine receptor; alpha3/beta4 (Homo sapiens, UniProt P30926+P32297); experiment: Effective concentration against Nicotinic acetylcholine receptor alpha3-beta4; assay type: protein-complex assay
T2 sequence (P30926 whole entry): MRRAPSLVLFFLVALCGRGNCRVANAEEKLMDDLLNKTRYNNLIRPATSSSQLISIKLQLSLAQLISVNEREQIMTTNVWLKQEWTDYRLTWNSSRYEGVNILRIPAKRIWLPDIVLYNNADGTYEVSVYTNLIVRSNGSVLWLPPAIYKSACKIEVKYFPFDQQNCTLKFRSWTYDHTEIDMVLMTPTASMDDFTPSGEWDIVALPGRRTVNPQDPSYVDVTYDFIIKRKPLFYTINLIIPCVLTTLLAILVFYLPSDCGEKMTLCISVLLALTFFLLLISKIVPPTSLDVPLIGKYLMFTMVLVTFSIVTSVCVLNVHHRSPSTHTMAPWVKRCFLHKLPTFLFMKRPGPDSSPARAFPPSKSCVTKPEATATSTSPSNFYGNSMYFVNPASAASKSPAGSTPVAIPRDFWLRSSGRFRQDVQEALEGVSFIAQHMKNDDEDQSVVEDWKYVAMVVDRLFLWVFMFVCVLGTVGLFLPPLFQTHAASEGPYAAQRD
T2 sequence (P32297 whole entry): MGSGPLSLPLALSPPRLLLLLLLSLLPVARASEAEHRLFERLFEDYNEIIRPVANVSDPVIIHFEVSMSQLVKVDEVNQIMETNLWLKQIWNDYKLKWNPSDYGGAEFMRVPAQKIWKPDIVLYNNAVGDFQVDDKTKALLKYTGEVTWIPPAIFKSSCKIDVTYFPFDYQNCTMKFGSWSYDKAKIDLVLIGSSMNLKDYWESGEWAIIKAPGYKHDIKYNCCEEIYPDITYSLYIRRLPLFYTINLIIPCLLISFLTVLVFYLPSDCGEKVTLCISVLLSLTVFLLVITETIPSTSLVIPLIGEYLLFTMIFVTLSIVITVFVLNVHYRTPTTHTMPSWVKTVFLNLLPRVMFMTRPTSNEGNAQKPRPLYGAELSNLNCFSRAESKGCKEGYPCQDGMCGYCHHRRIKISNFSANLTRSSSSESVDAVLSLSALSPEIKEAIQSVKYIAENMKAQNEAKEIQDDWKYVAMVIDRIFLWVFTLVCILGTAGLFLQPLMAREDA

[3] = target: T3, Neuronal acetylcholine receptor; alpha4/beta4 (Homo sapiens, UniProt P30926+P43681); experiment: Effective concentration against Nicotinic acetylcholine receptor alpha4-beta4; assay type: protein-complex assay
T3 sequence (P30926 whole entry): as the sequence (P30926 whole entry) above
T3 sequence (P43681 whole entry): as the sequence (P43681 whole entry) above

[4] = target: Neuronal acetylcholine receptor subunit alpha-7 (Rattus norvegicus) (UniProt Q05941); experiment: Maximal response against Nicotinic acetylcholine receptor alpha 7
Sequence of Neuronal acetylcholine receptor subunit alpha-7 (Rattus norvegicus) (Q05941 whole entry): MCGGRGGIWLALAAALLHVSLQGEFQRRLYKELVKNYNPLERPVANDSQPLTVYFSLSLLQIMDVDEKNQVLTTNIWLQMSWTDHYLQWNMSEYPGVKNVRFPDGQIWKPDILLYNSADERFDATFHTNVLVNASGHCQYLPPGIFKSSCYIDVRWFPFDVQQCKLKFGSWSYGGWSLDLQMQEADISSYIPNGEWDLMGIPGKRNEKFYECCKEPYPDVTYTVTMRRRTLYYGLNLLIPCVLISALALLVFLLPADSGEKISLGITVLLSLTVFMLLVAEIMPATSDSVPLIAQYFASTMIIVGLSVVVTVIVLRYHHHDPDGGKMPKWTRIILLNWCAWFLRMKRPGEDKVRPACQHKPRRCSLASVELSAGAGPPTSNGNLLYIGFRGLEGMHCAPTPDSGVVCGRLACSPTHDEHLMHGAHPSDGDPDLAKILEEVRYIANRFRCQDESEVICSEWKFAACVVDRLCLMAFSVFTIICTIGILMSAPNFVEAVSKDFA

[5] = target: T4, Neuronal acetylcholine receptor; alpha3/beta2 (Homo sapiens, UniProt P17787+P32297); experiment: Effective concentration against Nicotinic acetylcholine receptor alpha3-beta2; assay type: protein-complex assay
T4 sequence (P17787 whole entry): as the sequence (P17787 whole entry) above
T4 sequence (P32297 whole entry): as the sequence (P32297 whole entry) above

[6] = target: T1, Neuronal acetylcholine receptor; alpha4/beta2; experiment: Maximal response against Nicotinic acetylcholine receptor alpha4-beta2; assay type: protein-complex assay
[7] = target: T1, Neuronal acetylcholine receptor; alpha4/beta2; experiment: Inhibitory concentration against Nicotinic acetylcholine receptor alpha4-beta2; assay type: protein-complex assay
[8] = target: T3, Neuronal acetylcholine receptor; alpha4/beta4; experiment: Maximal response against Nicotinic acetylcholine receptor alpha4-beta4; assay type: protein-complex assay
[9] = target: T5, Neuronal acetylcholine receptor; alpha2/beta4 (Homo sapiens, UniProt P30926+Q15822); experiment: Maximal response against Nicotinic acetylcholine receptor alpha2-beta4; assay type: protein-complex assay
T5 sequence (P30926 whole entry): as the sequence (P30926 whole entry) above
T5 sequence (Q15822 whole entry): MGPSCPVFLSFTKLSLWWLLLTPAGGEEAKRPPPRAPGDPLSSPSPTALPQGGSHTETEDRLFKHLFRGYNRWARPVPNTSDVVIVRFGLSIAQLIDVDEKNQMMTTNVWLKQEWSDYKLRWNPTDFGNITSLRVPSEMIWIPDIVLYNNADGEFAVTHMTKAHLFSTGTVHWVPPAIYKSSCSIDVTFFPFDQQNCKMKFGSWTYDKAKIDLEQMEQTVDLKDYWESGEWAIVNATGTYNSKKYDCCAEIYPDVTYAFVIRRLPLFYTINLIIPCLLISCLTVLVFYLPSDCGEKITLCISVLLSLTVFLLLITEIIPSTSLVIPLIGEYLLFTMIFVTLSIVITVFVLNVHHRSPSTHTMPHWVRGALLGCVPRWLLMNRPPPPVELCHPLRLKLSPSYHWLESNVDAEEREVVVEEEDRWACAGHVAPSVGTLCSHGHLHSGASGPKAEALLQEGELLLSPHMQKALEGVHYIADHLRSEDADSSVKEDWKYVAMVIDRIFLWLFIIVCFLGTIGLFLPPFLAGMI

[10] = target: T2, Neuronal acetylcholine receptor; alpha3/beta4; experiment: Maximal response against Nicotinic acetylcholine receptor alpha3-beta4; assay type: protein-complex assay
[11] = target: T6, Neuronal acetylcholine receptor subunit alpha-7 (Homo sapiens, UniProt P36544); experiment: Effective concentration against Nicotinic acetylcholine receptor alpha 7
T6 sequence (P36544 whole entry): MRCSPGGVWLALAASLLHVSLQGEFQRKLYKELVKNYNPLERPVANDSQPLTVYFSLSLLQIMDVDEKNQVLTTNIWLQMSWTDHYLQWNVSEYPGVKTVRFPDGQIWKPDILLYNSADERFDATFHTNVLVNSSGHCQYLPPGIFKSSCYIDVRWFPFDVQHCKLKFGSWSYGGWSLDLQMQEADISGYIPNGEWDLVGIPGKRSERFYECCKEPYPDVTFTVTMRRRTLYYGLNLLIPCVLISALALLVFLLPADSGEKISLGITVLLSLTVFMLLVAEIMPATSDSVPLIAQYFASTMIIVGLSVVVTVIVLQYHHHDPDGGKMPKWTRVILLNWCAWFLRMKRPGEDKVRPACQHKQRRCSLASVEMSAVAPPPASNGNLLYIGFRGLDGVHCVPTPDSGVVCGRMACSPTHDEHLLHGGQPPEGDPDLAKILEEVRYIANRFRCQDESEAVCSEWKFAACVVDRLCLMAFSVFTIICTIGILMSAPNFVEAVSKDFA

[12] = target: T4, Neuronal acetylcholine receptor; alpha3/beta2; experiment: Maximal response against Nicotinic acetylcholine receptor alpha3-beta2; assay type: protein-complex assay
[13] = target: T5, Neuronal acetylcholine receptor; alpha2/beta4; experiment: Inhibitory concentration against Nicotinic acetylcholine receptor alpha2-beta4; assay type: protein-complex assay
[14] = target: T4, Neuronal acetylcholine receptor; alpha3/beta2; experiment: Inhibitory concentration against Nicotinic acetylcholine receptor alpha3-beta2; assay type: protein-complex assay
[15] = target: T6, Neuronal acetylcholine receptor subunit alpha-7; experiment: Inhibitory concentration against Nicotinic acetylcholine receptor alpha 7
[16] = target: T5, Neuronal acetylcholine receptor; alpha2/beta4; experiment: Effective concentration against Nicotinic acetylcholine receptor alpha2-beta4; assay type: protein-complex assay
[17] = target: T2, Neuronal acetylcholine receptor; alpha3/beta4; experiment: Inhibitory concentration against Nicotinic acetylcholine receptor alpha3-beta4; assay type: protein-complex assay

Compound	EC50 [1]	Rmax [4]	Rmax [6]	Rmax [10]	further results
O=C(NC1CN2CCC1CC2)c1ccc(-c2ccccn2)s1 (centres undefined)	> 10 µM	100%			EC50 [2]: > 10 µM; EC50 [3]: > 10 µM
C[N+](C)(C)CCO		90% and 100%			
c1cnc2c(c1)O[C@H]1CCN3CC[C@@]1(C2)C3 [DIANICLINE]	> 100 µM		19%		EC50 [5]: > 100 µM
CC[N+](CC)(CC)CCOc1ccc(/C=C/c2ccccc2)cc1					Concentration [7]: 3.2 µM
O=c1c(I)ccc2n1C[C@@H]1CNC[C@H]2C1		107%	47%		Rmax [8]: 105%
COc1cc2c(cn1)C1NCCC1CC2 (centres undefined)			8%	5%	Rmax [9]: 22%; Rmax [8]: 44%; EC50 [11]: > 300 µM
COc1ccc(/C=C2\CCCN=C2c2cccnc2)c(OC)c1 [GTS-21]	> 10 µM	23% and 28%	0%		EC50 [2]: > 10 µM; EC50 [3]: > 10 µM
CCCC1CCCNC(c2cccnc2)C1 (centres undefined)			3%	2%	Rmax [12]: 5%; EC50 [11]: 44 µM
CN(C)c1ccc(/C=C/C=C2\CCCN=C2c2cccnc2)cc1		76%	0%		
O=C(NC1CN2CCC1CC2)c1ccc(-c2ccsc2)s1 (centres undefined)	> 10 µM	100%			EC50 [2]: > 10 µM; EC50 [3]: > 10 µM
CN1C2CC[C@@H]1CC2c1ccnnc1 (some centres undefined)	0.32 µM				EC50 [5]: 0.013 µM; EC50 [11]: 25 µM
Fc1ccc(C2CC3CCC2N3)cn1 (centres undefined)			41%	40%	Rmax [8]: 131%
Clc1ccc(C2=CCC[C@H]3CCC2N3)cn1		55%	15%	50%	Rmax [9]: 50%; Rmax [12]: 50%; Rmax [8]: 70%
Cc1ncccc1OC[C@@H]1CCN1		> 1000%		< 15%	
CNC1(C)C2CCC(C2)C1(C)C (centres undefined) [MECAMYLAMINE]					IC50 [13]: 3.1 µM and 16 µM; IC50 [14]: 0.28 µM; IC50 [15]: 12.3 µM; Concentration [7]: 0.78 µM
H-AGGSDRRCRWR-NH2					IC50 [15]: 0.441 µM
Clc1ccc(OC[C@H]2CCN2)cn1				116%	
c1ccc(-c2cnc3c(c2)CC2(CN4CCC2CC4)O3)cc1 (centres undefined)	> 100 µM	85%			EC50 [16]: > 100 µM; EC50 [2]: > 100 µM; EC50 [5]: > 100 µM; EC50 [3]: > 100 µM
CSCC[C@H](NC(=O)[C@H](CC(N)=O)NC(=O)[C@H](CS)NC(=O)[C@@H]1CCCN1C(=O)[C@H](CCCNC(=N)N)NC(=O)[C@H](CC(=O)O)NC(=O)[C@H](CO)NC(=O)[C@H](CS)NC(=O)[C@H](CS)NC(=O)CN)C(=O)N[C@@H](CC(N)=O)C(=O)N[C@@H](CC(N)=O)C(=O)N1CCC[C@H]1C(=O)N[C@@H](CC(=O)O)C(=O)N[C@@H](Cc1ccc(O)cc1)C(=O)N[C@@H](CS)C(N)=O (H-GCCSDRPCNMNNPDYC-NH2)					IC50 [14]: 0.03 µM; IC50 [15]: 0.03 µM; IC50 [17]: 0.03 µM
CC(=O)CCN1C[C@@H]2C[C@H](C1)c1cccc(=O)n1C2		> 100%	3%	11%	
